Publication PMC10002375, “Synthesis of 3-(2-Alkylthio-4-chloro-5-methylbenzenesulfonyl)-2-(1-phenyl-3-arylprop-2-enylideneamino)guanidine Derivatives with Pro-Apoptotic Activity against Cancer Cells” (International Journal of Molecular Sciences, 2023)

Experiments:
HeLa cells = experiment: Mitochondrial membrane potential (JC-1, flow cytometry), HeLa; format: cell-based, human; conditions: 72 h, 24 at 10 or 25 μM, 31 at 25 μM
Description: (§1) A decrease in mitochondrial potential is one of the earliest hallmarks of apoptosis. A common method for indication of cells with high and low Δψm is flow cytometry combined with specific fluorescent probes, such as JC-1 (5,5′,6,6′-tetrachloro-1,1′,3,3′-tetraethylbenzimidazolylcarbocyanine iodide). JC-1 accumulates in mitochondria and forms complexes (J aggregates) with red fluorescence in healthy cells with a normal ΔΨm, whereas in apoptotic cells with a low ΔΨm exists as a monomer with green fluorescence.
(§2) Analyzed cells were seeded into wells of a 24-well plate at a density of 5 × 10^4 cells in 1000 µL, incubated overnight, and then the medium was exchanged for dilutions of reagents 24 and 31. Before the end of 72 h of incubation, MitoProbe JC-1 (25 µM) was added into each plate well. Carbonyl cyanide m-chlorophenylhydrazone CCCP (200 nM) as the mitochondrial oxidative phosphorylation uncoupler was added into the positive control 15 min before JC-1 was added. After 30 min of JC-1 staining, cells were washed with PBS and then trypsinized (Corning® 25-053CI). Cells suspended in PBS were analyzed by flow cytometry at λ excitation (ex) = 488 nm and λ emission (em) = 525/570 nm (LSR II BD Biosciences, San Jose, CA, USA).

MCF-7 cells [1] = experiment: Phosphatidylserine translocation (Annexin V-FITC/PI), MCF-7; format: cell-based, human
Description: (§3) One of the early indicators of apoptosis is the exposure of phosphatidylserine residues on the cell’s surface. Annexin V has a high affinity to phosphatidylserine and, as a conjugate to fluorescein isothiocyante (FITC), is widely used for detection of early apoptotic cells using flow cytometry. Detection of late-apoptotic or necrotic cells is achieved by using propidium iodide (PI) stain. Based on the obtained fluorescence, four subpopulations were found: PI-low/FITC-low (live cells), PI-high/FITC-low (necrotic cells), PI-low/FITC-high (early apoptotic cells), and PI-high/FITC-high (late apoptotic cells).
(§4) Analysis was performed using FITC-conjugated annexin-V (Annexin V-FITC Apoptosis Kit I, BD Biosciences, San Jose, CA, USA) according to the manufacturer’s instructions (BD Biosciences) as described previously. HeLa, MCF-7, and HCT-116, after seeding to 24-well plates (5 × 10^4/per well) and 24 h incubation, were treated for 72 h with 24 or 31 (10/25 µM or 25 µM concentration respectively). Following treatment, cells were washed in PBS, centrifuged, and then resuspended in a binding buffer. Afterward, the cells were incubated for 15 min at 37 °C with FITC-conjugated annexin-V and propidium iodide. The samples were then analyzed using a LSR II flow cytometer (BD Biosciences) using 530 ± 25 nm (Annexin V-FITC) and 575 ± 26 nm (PI).
(§5) The subpopulations were identified according to their fluorescence: PI-low/FITC-low (live cells), PI-high/FITC-low (necrotic cells), PI-low/FITC-high (early apoptotic cells), and PI-high/FITC-high (late apoptotic cells).

HaCaT cells = experiment: MTT assay with non-cancerous HaCaT cell line; format: cell-based; conditions: Homo sapiens, HaCaT, 72 h
Method: The important feature of new cytotoxic agents is their selective activity against cancer cells with a weak impact on the physiology of healthy cells. Determination of the selectivity of compounds 14–19 and 24–29 was done by MTT assay with the non-cancerous HaCaT cell line (Table 2). […] A similar effect was observed also for compound 26. […] Due to the excellent selectivity of compound 30 towards HCT-116 cells and at the same time high cytotoxicity towards this cell line (IC50 = 8 μM); derivative 30 may be a good hit compound for the search for chemotherapeutic agents for the treatment of colon cancer.
(§6) Cell viability was determined using the MTT (3-(4,5-dimethylthiazol-2-yl)-2,5-diphenyl-tetrazoliumbromide) assay. Stock solutions of the studied compounds were prepared in 100% DMSO. […] Cells were seeded in 96-well plates at a density of 5 × 10^3 cells/well and treated for 72 h with the examined compounds in the concentration range 1–100 μM (1, 10, 25, 50, and 100 μM). Following treatment, MTT (0.5 mg/mL) was added to the medium and cells were further incubated for 2 h at 37 °C. Cells were lysed with DMSO and the absorbance of the formazan solution was measured at 550 nm with a plate reader (1420 multilabel counter, Victor, Jügesheim, Germany). […] The experiment was performed in triplicate. Values are expressed as the mean ± SD of at least three independent experiments.

HCT-116 cells [2] = experiment: Cell morphology by light microscopy, HCT-116; format: cell-based, human; conditions: HCT-116, 10 and 25 μM, 72 h
Method: The evaluation of changes in cell morphology has been performed after incubation with compounds 24 and 31 for 72 h using light microscopy.
The HeLa, MCF-7, and HCT-116 cells were seeded on 24-well plates (5 × 10^4/per well) in 1 mL of medium for 24 h. After that time, cells were treated with 24 and 31 for next 72 h. Cells were treated with 10 µM, 25 µM of 24, or 25 µM of 31. As a control, non-treated cells were used. Morphology of cells was observed after 72 h using light microscope Olympus IX83.

HCT-116 cells [3] = experiment: Phosphatidylserine translocation (Annexin V-FITC/PI), HCT-116; format: cell-based, human
Description: as §3, §4, §5

MCF-7 cells [4] = experiment: Mitochondrial membrane potential (JC-1, flow cytometry), MCF-7; format: cell-based, human; conditions: MCF-7, 72 h, 24 at 10 or 25 μM, 31 at 25 μM
Description: as §1, §2

HeLa (cervical cancer) = experiment: MTT cell viability assay, HeLa; format: cell-based, human
Method: All chemicals, if not stated otherwise, were obtained from Sigma-Aldrich (St. Louis, MO, USA). The MCF-7 cell line was purchased from Cell Lines Services (Eppelheim, Germany), the HeLa and HCT-116 cell lines were obtained from the Department of Microbiology, Tumor and Cell Biology, Karolinska Institute (Stockholm, Sweden). Cells were cultured in Dulbecco’s modified Eagle’s medium (DMEM) supplemented with 10% fetal bovine serum, 2 mM glutamine, 100 units/mL penicillin, and 100 μg/mL streptomycin. Cultures were maintained in a humidified atmosphere with 5% CO2 at 37 °C in an incubator (HeraCell, Heraeus, Langenselbold, Germany).
as §6

[5] = test system: MCF-7, HeLa and HCT-116 cells; experiment: MTT assay, mean over three tested cancer cell lines; format: cell-based, human
Method: The cytotoxic activity of the compounds 8–33 has been evaluated in MTT assays against three human cancer cell lines MCF-7 (breast cancer), HeLa (cervical cancer), and HCT-116 (colon cancer) and it was expressed as IC50 values in μM (Table 1).
Although the highest activity of the compounds with hydroxyl groups as the R^2 residue was against colon cancer cells, the inhibition of the growth of breast cancer cells was also remarkable.
as §6

IC50 (HeLa (cervical cancer); Homo sapiens, HeLa, MTT, 72 h): 17 ± 0.5 µM
IC50 ([5]; Homo sapiens, mean of MCF-7, HeLa, HCT-116, MTT, 72 h, read-out: mean IC50 against three tested cell lines): 12.7 µM
Structure (SMILES): Cc1cc(S(=O)(=O)NC(N)=NN=C(C=Cc2ccccc2O)c2ccccc2)c(SCc2ccccc2Cl)cc1Cl [Compound 24, 3-{4-chloro-2-[(2-chlorophenyl)methylthio]-5-methylbenzenesulfonyl}-2-[3-(2-hydroxyphenyl)-1-phenylprop-2-enylideneamino]guanidine]
change of mitochondrial membrane potential (ΔΨm) (HeLa cells): remarkable decrease in ΔΨm
induction of apoptosis (Annexin V-FITC/PI) (MCF-7 cells [1]; MCF-7, 10 μM, 72 h): Induction of apoptosis
population of apoptotic cells (Annexin V-FITC/PI) (MCF-7 cells [1]; MCF-7, 72 h, 24 at 10 or 25 μM, 31 at 25 μM): increased population of apoptotic cells
IC50 (HaCaT cells): 33 ± 2 µM
changes in cell morphology (HCT-116 cells [2]): apoptotic-like changes, such as shrinkage of the cells or detachment from the surface
induction of apoptosis (Annexin V-FITC/PI) (HCT-116 cells [3]; HCT-116, 10 μM, 72 h): Induction of apoptosis
population of apoptotic cells (Annexin V-FITC/PI) (HCT-116 cells [3]; HCT-116, 72 h, 24 at 10 or 25 μM, 31 at 25 μM): increased population of apoptotic cells
change of mitochondrial membrane potential (ΔΨm) (MCF-7 cells [4]): remarkable decrease in ΔΨm
Selectivity Index HeLa/HaCaT (HeLa (cervical cancer); HeLa versus HaCaT, from IC50 values): 1.9
selectivity ratio, mean IC50 against cancer cells versus IC50 for HaCaT ([5]; HaCaT versus mean of three cancer cell lines): 2.6
